Test [1] concerns the target T1, Angiotensin-converting enzyme (Homo sapiens, UniProt P12821). The test is described as follows: Inhibition of testis ACE C domain.
The target of test [2] is T1, Angiotensin-converting enzyme. The test is described as follows: Inhibition of somatic ACE N domain upto 500 uM.
Test [3] has the same target. The test is described as follows: Selectivity for ACE C domain over ACE N domain.

We go through two compounds from ChEMBL document CHEMBL1149517, “Synthesis and molecular modeling of a lisinopril-tryptophan analogue inhibitor of angiotensin I-converting enzyme” (Bioorg Med Chem Lett, 2006).

pKi: −log10 of the molar value. Active and inactive are the calls of the source. No cut-off for these calls is given here.

T1 sequence (P12821 whole entry): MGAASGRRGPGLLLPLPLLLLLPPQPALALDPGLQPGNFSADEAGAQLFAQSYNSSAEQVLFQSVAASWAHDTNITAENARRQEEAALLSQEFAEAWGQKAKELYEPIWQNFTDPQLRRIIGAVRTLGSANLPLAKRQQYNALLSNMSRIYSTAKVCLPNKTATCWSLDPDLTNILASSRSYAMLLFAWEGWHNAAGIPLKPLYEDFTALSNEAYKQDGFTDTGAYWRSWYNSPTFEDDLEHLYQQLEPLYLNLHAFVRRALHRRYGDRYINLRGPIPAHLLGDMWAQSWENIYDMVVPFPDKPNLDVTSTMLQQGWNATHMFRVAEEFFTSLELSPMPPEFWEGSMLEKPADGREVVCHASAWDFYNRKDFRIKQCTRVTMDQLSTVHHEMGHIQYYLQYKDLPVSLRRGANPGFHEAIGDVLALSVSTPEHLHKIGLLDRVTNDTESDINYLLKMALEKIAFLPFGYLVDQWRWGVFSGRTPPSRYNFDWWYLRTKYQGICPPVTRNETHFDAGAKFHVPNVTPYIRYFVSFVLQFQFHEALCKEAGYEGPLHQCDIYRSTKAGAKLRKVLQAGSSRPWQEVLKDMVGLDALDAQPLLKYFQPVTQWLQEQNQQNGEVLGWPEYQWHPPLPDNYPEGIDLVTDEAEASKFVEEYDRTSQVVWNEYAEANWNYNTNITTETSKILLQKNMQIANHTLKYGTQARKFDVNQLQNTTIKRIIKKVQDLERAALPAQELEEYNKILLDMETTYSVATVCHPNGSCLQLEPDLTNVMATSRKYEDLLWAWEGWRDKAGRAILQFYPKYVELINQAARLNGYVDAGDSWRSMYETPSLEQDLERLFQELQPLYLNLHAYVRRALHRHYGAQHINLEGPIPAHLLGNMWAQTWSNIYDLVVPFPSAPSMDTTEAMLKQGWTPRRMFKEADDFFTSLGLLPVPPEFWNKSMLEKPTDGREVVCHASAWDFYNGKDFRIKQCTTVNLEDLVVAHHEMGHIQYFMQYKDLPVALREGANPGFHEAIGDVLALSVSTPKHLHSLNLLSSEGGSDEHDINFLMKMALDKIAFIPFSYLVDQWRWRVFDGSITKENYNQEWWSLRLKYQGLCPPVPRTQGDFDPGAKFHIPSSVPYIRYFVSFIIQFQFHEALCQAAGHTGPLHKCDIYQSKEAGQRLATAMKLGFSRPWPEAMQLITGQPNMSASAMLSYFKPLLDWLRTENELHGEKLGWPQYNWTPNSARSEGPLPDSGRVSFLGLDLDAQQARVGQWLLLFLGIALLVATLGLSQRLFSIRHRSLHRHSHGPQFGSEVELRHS

By pKi is commonly meant the negative decadic logarithm of the Ki, by convention in mol/L. A higher pKi goes with a small Ki. `NCCCC[C@H](N[C@H](CCc1ccccc1)C(=O)O)C(=O)N[C@@H](Cc1c[nH]c2ccccc12)C(=O)O` gave a negative-log Ki (pKi) in test [1] of 4.58. Also, in test [2], the result was inactive. The Ratio Ki in test [3] is greater than 25.

`NCCCC[C@H](N[C@@H](CCc1ccccc1)C(=O)O)C(=O)N[C@@H](Cc1c[nH]c2ccccc12)C(=O)O` gave a negative logarithm of the Ki (pKi) in test [1] of 5.15. Moreover, the outcome in test [2] was inactive. The Ratio Ki in test [3] was greater than 100.
